Laboratory results reported in US10519138B2, “Modulators of SOCE, compositions, and uses thereof” (Università degli Studi del Piemonte Orientale “Amedeo …, priority 2016, dated 2019).
Where “and” joins values, the source holds several entries; their conditions need not be identical. Equal values may be shown once.

Tests used:
[1] = system: Store Operated Calcium Entry (SOCE) in Jurkat cells; experiment: Fura-2 single-cell Ca2+ measurement of tBHQ-induced SOCE in Jurkat cells; format: cell-based, human; details: for inhibition at 10 µM: Homo sapiens, SOCE modulation based on tBHQ-induced calcium influx
Experimental: Immortalized line of human T lymphocyte Jurkat cells were achieved from ATCC (ATCC® TIB-152™, Rockville, Md., USA) and were cultured in Roswell Park Memorial Institute Medium (RPMI 1640; Sigma-Aldrich, Italy), supplemented with 10% heat-inactivated FBS (Gibco, Italy), 1-glutamine 50 mg/mL (Sigma-Aldrich, Italy), penicillin 10 U/mL and streptomycin […] (Sigma-Aldrich, Italy) at 37° C., under a 5% CO2 humidified atmosphere. For experiments, the cells were plated onto glass coverslips at concentrations of 6×10^4 per mL (24 mm diameter coverslips in 6 well plates).
Compounds were also tested on Jurkat cells in single-cell analysis using Fura-2 AM on cover-slips. Jurkat cells were loaded with 5 μM Fura-2 AM in presence of 0.02% of Pluronic-127 (both from Life Technologies, Italy) and 1 μM sulfinpyrazone in Krebs-Ringer buffer (KRB, 135 mM NaCl, 5 mM KCl, 0.4 mM KH2PO4, 1 mM MgSO4, 5.5 mM glucose, 20 mM HEPES, pH 7.4) containing 2 mM CaCl2 (30 min, room temperature). Afterwards, cells were washed and incubated with KRB for other 30 min to allow de-esterification of Fura-2AM. To measure store operated calcium entry, changes in cytosolic Ca^2+ were monitored upon depletion of the intracellular Ca^2+ stores. Experiments were carried out prior to and during exposure of the cells to the Ca^2+-free solution. In the absence of Ca^2+, the intracellular Ca^2+ stores were depleted by inhibition of the vesicular Ca^2+ pump by 2,5-t-butylhydroquinone (tBHQ, 50 μM; Sigma-Aldrich, Italy). Re-addition of 2 mM Ca^2+ allowed assessing the SOCE. During the experiments the cover-slips were mounted into acquisition chamber and placed on the stage of a Leica DMI6000 epi-fluorescent microscope equipped with S Fluor ×40/1.3 objective. Fura-2 was excited by alternate 340 and 380 nm using a Polychrome IV mono-chromator (Till Photon-ics, Germany) and the probe emission light was filtered through 520/20 band-pass filter and collected by a cooled CCD camera (Hamamatsu, Japan). The fluorescence signals were acquired and processed using MetaFluor software (Molecular Device, Sun-Nyvale, C A, USA). To quantify the differences in the amplitudes of Ca^2+ transients the ratio values were normalized using the formula ΔF/F0 (referred to as normalized Fura-2 ratio, “Norm. Fura ratio”). The percentage of SOCE modulation for each of 15 compounds was determined based on value of tBHQ-induced calcium influx into Jurkat cells. Data were analysed using Microsoft Excel and GraphPad Prism.

[2] = system: Store Operated Calcium Entry (SOCE) in BV-2 cells; experiment: Fluo-4 fluorimetric assay of tBHQ-induced store operated calcium entry in BV-2 cells; format: cell-based, mouse; details: for inhibition at 10 µM: Mus musculus, SOCE inhibition based on tBHQ-induced calcium influx; for % Activation (10 μM): potentiation of calcium entry
Experimental: (A) BV-2 cells were plated in poly-d-lysine coated 24-well plate and incubated overnight. After 24 hours, cells were loaded with 2 μM Fluo-4 and placed in an extracellular solution containing 0 mM Ca^2+. Stores were depleted with 50 μM tBHQ and calcium influx was stimulated by the addition of 2 mM Ca^2+ alone (Ctrl), or in conbination with: compound with no activity (NM-3A), and compounds that positively (4-(1-(4-(3,5-bis(trifluoromethyl)-1H-pyrazol-1-yl)phenyl)-1H-1,2,3-triazol-4-yl)benzoic acid) and negatively (3-(1-(4-(4-(ethoxycarbonyl)-5-(trifluoromethyl)-1H-pyrazol-1-yl)phenyl)-1H-1,2,3-triazol-4-yl)benzoic acid) regulate SOCE. Calcium responses are expressed as changes in fluorescence intensity before and after the addition of selected modulators. (B) BV-2 cells were assayed for a calcium response to different concentrations of 3-(1-(4-(4-(ethoxycarbonyl)-5-(trifluoromethyl)-1H-pyrazol-1-yl)phenyl)-1H-1,2,3-triazol-4-yl)benzoic acid and 4-(1-(4-(3,5-bis(trifluoromethyl)-1H-pyrazol-1-yl)phenyl)-1H-1,2,3-triazol-4-yl)benzoic acid (0.1-0.3-1-3-10-30-100 μM) using Fluo-4 fluorimetric assay. Concentration-response curves represent the AUC % of both compounds as compared to positive control.
Immortalized primary mouse microglial BV-2 cells were obtained from ATCC (ATCC® CRL-2540™, Rockville, Md., USA) and were cultured in Dulbecco's Modified Eagle's Medium (DMEM; Sigma-Aldrich, Italy), supplemented with 10% heat-inactivated FBS (Gibco, Italy), 1-glutamine 50 mg/mL (Sigma-Aldrich, Italy), penicillin 10 U/mL and streptomycin […] (Sigma-Aldrich, Italy) at 37° C., under a 5% CO2 humidified atmosphere. For experiments, the cells were plated 2×10^4 per ml in 24 well plates) or onto glass coverslips at concentrations of 4×10^4 per mL (24 mm diame-ter coverslips in 6 well plates).
BV-2 cells were loaded with 5 μM Fluo-4 AM in presence of 0.02% of Pluronic-127 (both from Life Technologies, Italy) and 10 μM sulfinpyrazone in Krebs-Ringer buffer (KRB, 135 mM NaCl, 5 mM KCl, 0.4 mM KH2PO4, 1 mM MgSO4, 5.5 mM glucose, 20 mM HEPES, pH 7.4) containing 2 mM CaCl2 (30 min, room temperature). Subsequently, cells were washed and incubated with KRB for other 30 min to allow de-esterification of Fluo-4 AM. Experiments were carried out prior to and during exposure of the cells to the Ca^2+-free solution. In the absence of Ca^2+, the intracellular Ca^2+ stores were depleted by 2,5-t-butylhydroquinone (tBHQ, 50 μM; Sigma-Aldrich, Italy), a SERCA poison, and then calcium 2 mM was re-added to the extracellular solution. Fluorescence is then monitored sequentially for a second in each well for 600 seconds with excitation at 494 nm and an emission wavelength at 516 nm on the V3 Victor plate-reader (Perkin Elmer), generating time-curves for each well. Data were analysed using Microsoft Excel and GraphPad Prism.
The percentage of SOCE inhibition for each compound was determined based on value of tBHQ-induced calcium influx into BV-2 cells (Table 2).

ICRAC = ICRAC (Homo sapiens, UniProt Q96D31); details: read-out: IC50 (inhibition of ICRAC); cited from earlier work
Sequence of ICRAC (Q96D31 whole entry): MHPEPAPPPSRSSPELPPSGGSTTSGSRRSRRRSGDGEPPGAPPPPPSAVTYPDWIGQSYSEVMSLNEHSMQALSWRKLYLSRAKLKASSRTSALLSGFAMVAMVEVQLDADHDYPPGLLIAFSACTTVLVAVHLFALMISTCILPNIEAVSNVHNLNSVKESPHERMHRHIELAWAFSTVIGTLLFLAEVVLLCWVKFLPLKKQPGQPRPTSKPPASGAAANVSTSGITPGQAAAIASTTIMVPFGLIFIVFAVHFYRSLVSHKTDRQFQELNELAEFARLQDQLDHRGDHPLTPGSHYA

O=C(O)c1cnn(-c2ccc(-c3cn(-c4ccc(Cl)cc4)nn3)cc2)c1C(F)(F)F [1-(4-(1-(4-chlorophenyl)-1H-1,2,3-triazol-4-yl)phenyl)-5-(trifluoromethyl)-1H-pyrazole-4-carboxylic acid]
% Activation (10 μM) [1]: 100.13%

O=C(O)c1cccc(-c2cn(-c3ccc(-n4nc(C(F)(F)F)cc4C(F)(F)F)cc3)nn2)c1 [3-(1-(4-(3,5-bis(trifluoromethyl)-1H-pyrazol-1-yl)phenyl)-1H-1,2,3-triazol-4-yl)benzoic acid]
inhibition at 10 µM [2]: 38.7% | inhibition at 10 µM [1]: 38.3%

O=C(O)c1cccc(-c2cn(-c3ccc(-n4ncc(C(=O)OCCN5CCOCC5)c4C(F)(F)F)cc3)nn2)c1 [3-(1-(4-(4-((2-morpholinoethoxy)carbonyl)-5-(trifluoromethyl)-1H-pyrazol-1-yl)phenyl)-1H-1,2,3-triazol-4-yl)benzoic acid]
inhibition at 10 µM [2]: 95.7% | inhibition at 10 µM [1]: 25.1%

O=C(O)c1cccc(-c2cn(-c3ccc(-n4ncc(C(=O)OCc5ccccc5)c4C(F)(F)F)cc3)nn2)c1 [3-(1-(4-(4-((benzyloxy)carbonyl)-5-(trifluoromethyl)-1H-pyrazol-1-yl)phenyl)-1H-1,2,3-triazol-4-yl)benzoic acid]
inhibition at 10 µM [2]: 87% | inhibition at 10 µM [1]: 33.5%

O=C(O)c1cccc(-c2cn(-c3ccc(-n4ncc(C(=O)OCc5ccncc5)c4C(F)(F)F)cc3)nn2)c1 [3-(1-(4-(4-((pyridin-4-ylmethoxy)carbonyl)-5-(trifluoromethyl)-1H-pyrazol-1-yl)phenyl)-1H-1,2,3-triazol-4-yl)benzoic acid]
inhibition at 10 µM [2]: 54.6% | inhibition at 10 µM [1]: 57%

CC(C)OC(=O)c1cnn(-c2ccc(-n3cc(-c4cccc(C(=O)O)c4)nn3)cc2)c1C(F)(F)F [3-(1-(4-(4-(isopropoxycarbonyl)-5-(trifluoromethyl)-1H-pyrazol-1-yl)phenyl)-1H-1,2,3-triazol-4-yl)benzoic acid]
inhibition at 10 µM [2]: 74.6% | inhibition at 10 µM [1]: 93.9%

COC(=O)c1cnn(-c2ccc(-n3cc(-c4cccc(C(=O)O)c4)nn3)cc2)c1C(F)(F)F [3-(1-(4-(4-(methoxycarbonyl)-5-(trifluoromethyl)-1H-pyrazol-1-yl)phenyl)-1H-1,2,3-triazol-4-yl)benzoic acid]
inhibition at 10 µM [2]: 12.4% | inhibition at 10 µM [1]: 21.8%

O=C(O)c1cccc(-n2cc(-c3ccc(-n4nc(C(F)(F)F)cc4C(F)(F)F)cc3)nn2)c1 [3-(4-(4-(3,5-bis(trifluoromethyl)-1H-pyrazol-1-yl)phenyl)-1H-1,2,3-triazol-1-yl)benzoic acid]
inhibition at 10 µM [2]: 30.5% | inhibition at 10 µM [1]: 39.7%

CCOC(=O)c1cnn(-c2ccc(-c3cn(-c4cccc(C(=O)O)c4)nn3)cc2)c1C(F)(F)F [3-(4-(4-(4-(ethoxycarbonyl)-5-(trifluoromethyl)-1H-pyrazol-1-yl)phenyl)-1H-1,2,3-triazol-1-yl)benzoic acid]
inhibition at 10 µM [2]: 43.3% | inhibition at 10 µM [1]: 63.6%

O=C(O)c1ccc(-c2cn(-c3ccc(-n4nc(C(F)(F)F)cc4C(F)(F)F)cc3)nn2)cc1 [4-(1-(4-(3,5-bis(trifluoromethyl)-1H-pyrazol-1-yl)phenyl)-1H-1,2,3-triazol-4-yl)benzoic acid]
% Activation (10 μM) [2]: 125.15% | Regulation of SOCE (calcium response, representative traces FIG. 2A) ([2]; Fluo-4, 50 μM tBHQ, 2 mM Ca2+ re-addition): positively | % Activation (10 μM) [1]: 136.42%

CCOC(=O)c1cnn(-c2ccc(-n3cc(-c4ccc(C(=O)O)cc4)nn3)cc2)c1C(F)(F)F [4-(1-(4-(4-(ethoxycarbonyl)-5-(trifluoromethyl)-1H-pyrazol-1-yl)phenyl)-1H-1,2,3-triazol-4-yl)benzoic acid]
inhibition at 10 µM [2]: 40.1% | inhibition at 10 µM [1]: 32.3%

CCOC(=O)c1cnn(-c2ccc(-c3cn(CCCC(=O)O)nn3)cc2)c1C(F)(F)F [4-(4-(4-(4-(ethoxycarbonyl)-5-(trifluoromethyl)-1H-pyrazol-1-yl)phenyl)-1H-1,2,3-triazol-1-yl)butanoic acid]
inhibition at 10 µM [2]: 30.1% | inhibition at 10 µM [1]: 19.1%

COc1ccc(OC)c(-c2ccc(NC(=O)c3ccncc3F)cc2)c1 [Synta66]
IC50 (ICRAC): 300 nM

CCOC(=O)c1cnn(-c2ccc(-c3cn(-c4ccncc4F)nn3)cc2)c1C(F)(F)F [ethyl 1-(4-(1-(3-fluoropyridin-4-yl)-1H-1,2,3-triazol-4-yl)phenyl)-5-(trifluoromethyl)-1H-pyrazole-4-carboxylate]
inhibition at 10 µM [2]: 37.7% | inhibition at 10 µM [1]: 32.9%

CCOC(=O)c1cnn(-c2ccc(-c3cn(-c4ccc(Cl)cc4)nn3)cc2)c1C(F)(F)F [ethyl 1-(4-(1-(4-chlorophenyl)-1H-1,2,3-triazol-4-yl)phenyl)-5-(trifluoromethyl)-1H-pyrazole-4-carboxylate]
% Activation (10 μM) [2]: 47.07% | % Activation (10 μM) [1]: 122.94% and 126.78% and 97.32%

CCOC(=O)c1cnn(-c2ccc(-n3cc(-c4ccc(O)c(OC)c4)nn3)cc2)c1C(F)(F)F [ethyl 1-(4-(4-(4-hydroxy-3-methoxyphenyl)-1H-1,2,3-triazol-1-yl)phenyl)-5-(trifluoromethyl)-1H-pyrazole-4-carboxylate]
inhibition at 10 µM [2]: 35% | inhibition at 10 µM [1]: 78.4%
